Test results taken from article PMC7037393, “Synthesis, Structural, and Cytotoxic Properties of New Water-Soluble Copper(II) Complexes Based on 2,9-Dimethyl-1,10-Phenanthroline and Their One Derivative Containing 1,3,5-Triaza-7-Phosphaadamantane-7-Oxide” (Molecules, 2020).

Key:
[1] = tested on: A549 (human lung carcinoma); assay: Cytotoxicity on A549 cells, quantitative suspension test according to EN 14476; type: cell-based; details: observed 4 days, aqua media
Description: (§1) Normal human dermal fibroblasts (NHDF) (PromoCell, C-12302) were used as normal cells and LoVo (human colorectal adenocarcinoma, ATCC® CCL-229™), A549 (human lung carcinoma, ATCC, No. CCL-185 TM), MCF-7 (human breast adenocarcinoma, ATCC, No. HTB-22^TM) and HeLa (human cervix carcinoma, ATCC, No. CCL-2 TM) were used as cancer cells. They were cultured in DMEM, DMEM–F12 or EMEM (Lonza, CA, USA). Media were supplemented with 10% FBS (Biological Industries, Kibbutz Beit-Haemek, Israel), 2 mM L-glutamine (Biological Industries, Israel), 100 U/mL of penicillin and 100 µg/mL of streptomycin (Sigma, Neustadt an der Weinstrasse, Germany).
(§2) The 100 μL of suspension of NHDF, A549, HeLa, LoVo, and MCF7 cells at a density of 4 × 10^4 cells mL^−1 were incubated in a 96-well polystyrene plate (NUNC, Denmark) for 24 h. Product test solutions were prepared in DMEM, DMEM–F12, or EMEM supplemented with additional 2% FBS and 2 mM L-glutamine. Solutions of the reagents at concentrations from 460 (for 1), 454 (2), […] (3), 1242 (Cu(NO3)2), 1732 (PTA=O), and 1440 µM (dmphen) to 4.60 × 10^−6, 4.54 × 10^−6, 4.69 × 10^−6, 1.24 × 10^−5, 1.73 × 10^−5, and 1.44 × 10^−5 µM, respectively, were prepared and transferred (100 μL) into cell culture units (wells of microtiter plates) containing monolayer of cells. Eight units were inoculated with each dilution. Plates were incubated in 37 °C, 5% CO2 and observed daily for 4 days for the development of cytotoxic effect, using an inverted microscope (Olympus Corp., Hamburg, Germany, Axio Observer, Carl Zeiss MicroImaging GmbH). Then the wells were washed in phosphate buffered saline (PBS) and stained using DAPI (4′,6-diamidino-2-phenylindole) and propidium iodide (Merck, Darmstadt, Germany). The study used the fact that DAPI is able to be combined with cellular DNA, permeate through the membrane of cell, rapidly enter the nucleus of living cells and bind with DNA to form a DAPI-DNA complex. […] In cell culture these are cells that are apoptotic or damaged by any physical or chemical agent. Therefore, if these two fluorochrome are given at the same time, DAPI will get to healthy cells faster, while propidium iodide will stain dead or dying cells. The calculation of the ratio of cells counted on a specific area, allows to determine the potency of a substance in inhibiting a specific biological function (IC50).

[2] = Solubility in water at 25 °C, stepwise water addition; type: physicochemical; details: H2O
Description: The copper complexes 1–3 were air stable in the solid state and at least for several days in H2O solutions. In a general procedure, the complex was dissolved in H2O in air atmosphere. […] Also UV-Vis spectra of water solutions of 1-3 confirm their stability in several days. […] After each addition of an amount of water (100 µL), the mixture was shaken for several minutes and then visually checked for any undissolved parts of the sample.

[3] = Octanol-water partition coefficient (log P), UV-Vis; type: physicochemical; details: room temperature, 10^−5 M
Description: The log P values consistent to the octanol-water partition coefficient were adjusted to the solubility properties of the compounds [94]. Complexes 1–3 were dissolved in water, previously saturated with octanol with concentrations 10^−5 M. Into a 25-mL flask at room temperature with a magnetic stir bar was introduced initially 5 mL of octanol previously saturated with water and then 5 mL of the complex solutions in water. A two-phase mixture was stirred vigorously for 15 min and samples, which were measured by UV-Vis spectroscopy, were taken from the separated phases.

[4] = tested on: HeLa (human cervix carcinoma); assay: Cytotoxicity on HeLa cells, quantitative suspension test according to EN 14476; type: cell-based; details: observed 4 days, aqua media
Description: as §1, §2

[5] = tested on: MCF7 (human breast adenocarcinoma); assay: Cytotoxicity on MCF7 cells, quantitative suspension test according to EN 14476; type: cell-based; details: observed 4 days, aqua media
Description: as §1, §2

[6] = tested on: LoVo (human colorectal adenocarcinoma); assay: Cytotoxicity on LoVo cells, quantitative suspension test according to EN 14476; type: cell-based; details: observed 4 days, aqua media
Description: as §1, §2

Row | SMILES | IC50 [1] [nM] | solubility in water S25 °C [2] | log P (octanol-water partition coefficient) [3] | IC50 [4] [nM] | IC50 [5] [nM] | IC50 [6] [nM]
1 | CC#N.Cc1ccc2ccc3ccc(C)nc3c2n1.O=[N+]([O-])[O-].O=[N+]([O-])[O-].[Cu+2] [Complex 3, [Cu(NO3)2(dmphen)]∙MeCN] | 430 ± 60 | 2.9 mg mL^−1 and ≈ 2.9 mg mL^−1 | 1.11 | 430 ± 60 | 3450 ± 510 | 1720 ± 250
2 | Cc1ccc2ccc3ccc(C)nc3c2n1.Cc1ccc2ccc3ccc(C)nc3c2n1.F[P-](F)(F)(F)(F)F.[Cl-].[Cu+2] [Complex 2, [Cu(Cl)(dmphen)2][PF6]] | 280 ± 40 | 2.5 mg mL^−1 and ≈ 2.5 mg mL^−1 | 1.75 | 1130 ± 170 | 570 ± 80 | 1130 ± 170
3 | Cc1ccc2ccc3ccc(C)nc3c2n1.F[P-](F)(F)(F)(F)F.O=P12CN3CN(CN(C3)C1)C2.O=[N+]([O-])[O-].[Cu+2] [Complex 1, [Cu(NO3)(PTA=O)(dmphen)][PF6]] | 290 ± 10 | 3.8 mg mL^−1 and ≈ 3.8 mg mL^−1 | 0.90 | 1120 ± 160 | 570 ± 80 | 570 ± 80
